pKi: −log10 of the molar value.
Key:
[1] = target: T1, human AR (Homo sapiens, UniProt P10275); assay: AR reporter gene transactivation assay in COS-7 cells; format: cell-based; settings: 5 μM derivative, stimulation by 10 nM testosterone
T1 construct: Plasmid pCMV-FLAG-hAR, expressing full-length human AR; host or cells: COS-7
T1 sequence (P10275 1-920): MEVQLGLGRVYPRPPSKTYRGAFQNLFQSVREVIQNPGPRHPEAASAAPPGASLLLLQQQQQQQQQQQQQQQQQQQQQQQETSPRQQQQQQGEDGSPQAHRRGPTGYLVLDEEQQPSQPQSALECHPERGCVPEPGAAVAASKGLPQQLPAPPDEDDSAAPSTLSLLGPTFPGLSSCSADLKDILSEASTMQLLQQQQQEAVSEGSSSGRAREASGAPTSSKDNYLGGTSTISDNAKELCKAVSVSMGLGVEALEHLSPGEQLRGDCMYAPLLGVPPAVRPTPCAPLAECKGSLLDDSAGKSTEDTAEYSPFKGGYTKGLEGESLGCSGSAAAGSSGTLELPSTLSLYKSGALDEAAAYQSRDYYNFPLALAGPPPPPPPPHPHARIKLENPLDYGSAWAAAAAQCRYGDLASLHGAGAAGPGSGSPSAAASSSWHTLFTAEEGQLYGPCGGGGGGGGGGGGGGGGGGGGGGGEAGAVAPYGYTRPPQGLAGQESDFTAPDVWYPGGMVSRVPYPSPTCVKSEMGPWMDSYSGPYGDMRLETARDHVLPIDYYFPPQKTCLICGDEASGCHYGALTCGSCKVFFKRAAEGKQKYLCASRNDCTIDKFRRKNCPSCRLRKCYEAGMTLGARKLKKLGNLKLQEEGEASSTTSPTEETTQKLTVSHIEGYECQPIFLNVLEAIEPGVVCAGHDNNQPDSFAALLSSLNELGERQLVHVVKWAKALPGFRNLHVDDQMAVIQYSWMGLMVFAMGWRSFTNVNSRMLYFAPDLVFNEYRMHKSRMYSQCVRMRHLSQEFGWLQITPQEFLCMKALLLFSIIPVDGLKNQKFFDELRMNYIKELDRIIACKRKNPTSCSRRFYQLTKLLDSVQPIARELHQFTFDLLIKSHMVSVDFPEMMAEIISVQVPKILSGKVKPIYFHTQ
Method: (§1) Receptor transcriptional activity was assessed using a transactivation gene reporter assay, as described. Briefly, COS-7 cells were seeded on 96-well plates in DMEM supplemented with 10% charcoal-stripped FBS (Biowest, Nuaillé, France). Twenty-four hours after seeding, cells were transfected with pcDNA3-hMR, pcDNA3-hGR, or pCMV-FLAG-hAR in combination with pSG5-luc and pSG5-ren in a 5:4:1 proportion, respectively. […] After 2 h of incubation, cells were further treated with agonists (1 × 10^−8 M aldosterone; 1 × 10^−8 M testosterone or 0.5 × 10^−6 M cortisol) in the presence of each compound for 16 h. Assays using hMR included a control condition with 0.25 × 10^−6 M eplerenone. MR maximum and minimum activity were obtained in each assay using conditions with 1 × 10^−9 M aldosterone or vehicle (ethanol). Each condition was performed in three parallel wells. After treatments, firefly and Renilla luciferase activities were measured sequentially in the cell lysates using a commercially available kit (Dual-Glo; Promega, Madison, WI, USA). Receptor transcriptional activity was calculated as the ratio luc/ren. The activities in each condition were normalized to the activity obtained with vehicle or with agonist as indicated in each figure panel and are expressed a as percentage of the maximum value ± SD.

[2] = target: T2, human MR (hMR) (Homo sapiens, UniProt P08235); assay: MR gene reporter transactivation assay in transiently transfected COS-7 cells; format: cell-based; settings: 1,4-DHP derivative 5 μM, 10 nM aldosterone stimulation
T2 construct: expressed in transfected cells; host or cells: COS-7
T2 sequence (P08235 1-984): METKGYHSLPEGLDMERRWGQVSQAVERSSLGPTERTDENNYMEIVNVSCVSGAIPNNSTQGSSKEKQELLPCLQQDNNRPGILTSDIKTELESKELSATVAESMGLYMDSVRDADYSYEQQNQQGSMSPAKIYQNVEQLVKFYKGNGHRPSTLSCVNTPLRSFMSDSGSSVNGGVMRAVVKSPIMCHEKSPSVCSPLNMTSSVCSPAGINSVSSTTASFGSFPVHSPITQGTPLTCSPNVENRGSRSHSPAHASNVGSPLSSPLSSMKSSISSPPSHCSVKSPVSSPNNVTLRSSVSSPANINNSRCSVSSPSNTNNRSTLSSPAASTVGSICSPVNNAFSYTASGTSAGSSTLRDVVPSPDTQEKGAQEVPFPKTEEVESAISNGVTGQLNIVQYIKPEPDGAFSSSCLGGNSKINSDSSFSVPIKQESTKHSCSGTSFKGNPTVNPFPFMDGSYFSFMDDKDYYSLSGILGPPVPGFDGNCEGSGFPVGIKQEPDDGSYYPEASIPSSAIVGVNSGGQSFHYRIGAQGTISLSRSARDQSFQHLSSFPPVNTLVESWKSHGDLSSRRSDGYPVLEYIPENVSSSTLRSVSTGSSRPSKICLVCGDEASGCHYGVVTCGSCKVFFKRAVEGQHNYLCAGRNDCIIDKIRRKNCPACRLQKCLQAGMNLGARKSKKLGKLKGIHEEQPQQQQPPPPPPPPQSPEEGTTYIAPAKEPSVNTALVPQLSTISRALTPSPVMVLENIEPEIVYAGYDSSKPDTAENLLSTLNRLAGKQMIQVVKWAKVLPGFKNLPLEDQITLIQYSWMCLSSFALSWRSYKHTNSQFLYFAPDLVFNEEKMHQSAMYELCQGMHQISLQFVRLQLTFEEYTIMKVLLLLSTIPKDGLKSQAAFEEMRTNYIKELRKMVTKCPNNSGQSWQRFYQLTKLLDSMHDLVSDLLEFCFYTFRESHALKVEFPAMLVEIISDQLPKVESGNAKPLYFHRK
Method: as §1, with “Assays using hMR included a control condition with 0.25 × 10^−6 M eplerenone.” left out

[3] = target: T2, human MR (hMR); assay: [3H]-aldosterone displacement from human MR, ligand-receptor binding assay in transfected COS-7 cells; settings: 1 nM [3H]-aldosterone, increasing concentrations of unlabeled ligand, one-site model
Method: Ligand-receptor binding assays were performed as described before. Briefly, COS-7 cells were seeded on 24-well plates and transfected with plasmid pcDNA3-hMR. Twenty-four hours after transfection, cells were washed once with serum-free DMEM and incubated for 2 h in 500 μL of the same medium containing the indicated concentration of each compound. After this initial period, cells were further incubated with the indicated compounds and 1 × 10^−9 M [^3H]-aldosterone (PerkinElmer Life Sciences, Waltham, MA, USA) for one additional hour. Cells were then washed twice with phosphate-buffered saline (PBS: 137 mM NaCl, 2,7 mM KCl, 10 mM Na2HPO4, 1.8 mM KH2PO4, pH 7.4) and then extracted with 200 μL of an ethanol:water mix (4:1, v:v). Disintegrations were recorded using liquid scintillation in a β counter. Control conditions included non-transfected cells, transfected cells treated with unlabeled aldosterone or transfected cells, treated with 1 nM [^3H]-aldosterone in the presence of 1 × 10^−5 M unlabeled aldosterone. Specific binding was determined by subtracting the number of disintegrations per minute (dpm) in the presence of 1 × 10^−5 M unlabeled aldosterone from the condition with 1 nM [^3H]-aldosterone. Each condition was performed in triplicate. Competition of each compound for 1 nM [^3H]-aldosterone binding was calculated as the percentage of the maximum binding obtained in the absence of compound.

Q: With `COC(=O)C1=C(CNC(=O)OCc2ccccc2)NC(C)=C(C#N)C1c1ccc(C#N)cc1OC` (stereo not drawn) [Compound 16, Methyl 2-[(benzyloxycarbonyl)amino]methyl-5-cyano-4-(4-cyano-2-methoxy)phenyl-6-methyl-1,4-dihydropyridine-3-carboxylate] as the molecule, how does the “decrease of AR activation” value [1] read?
A: 15%

Q: What about the “MR activity, % of the maximal activity” value [2] of the same molecule?
A: 57%

Q: What about the pKi [3] of the same molecule?
A: 6.58
